This is an account of results in patent US7812022B2 (GlaxoSmithKline LLC, priority 2004, dated 2010).

One assay addresses T1, ErbB2 or EGFR.
T1 construct: enzymes purified from a baculovirus expression system; Reagent production was conducted essentially as described in Brignola, P. S., et al, (2002) J. Biol. Chem. 277(2): 1576-1585
The assay can be described thus: ErbB family substrate phosphorylation enzyme assay (HTRF), Method A or Method B. The class given is biochemical. As to the method:
Compounds of the present invention were tested for EGFR, ErbB-2, and ErbB-4 protein tyrosine kinase inhibitory activity in substrate phosphorylation assays using enzymes purified from a baculovirus expression system. Reagent production was conducted essentially as described in Brignola, P. S., et al, (2002) J. Biol. Chem. 277(2): 1576-1585.
The method measures the ability of the isolated enzyme to catalyse the transfer of the gamma-phosphate from ATP onto the tyrosine residue of a biotinylated synthetic peptide referenced “Peptide C” in Brignola, P. S., et al, (2002) J. Biol. Chem. 277(2):1576-1585. The extent of tyrosine phosphorylation was measured using an anti-phosphotyrosine antibody, and quantified by homogenous time-resolved fluorescence (HTRF).
Reactions were performed in black 384-well polystyrene flat-bottom plates in a final volume of 20 ul. Assays were performed by adding 10 μl of each of the following solutions, substrate Mix and enzyme mix: The Substrate mix contained 100 mM 3-[N-morpholino]propanesulfonic acid (MOPS) (pH 7.5), 2 mM MnCl2, 20 μM ATP, 0.01% Tween-20, 0.1 mg/mL (BSA), 0.8 uM peptide substrate, and 1 mM dithiothreitol. The enzyme mix contained 100 mM MOPS (pH7.5); 0.01% Tween-20; 0.1 mg/mL BSA, and either 0.8 nM EGFR, 10 nM ErbB2, or 1 nM ErbB4
During the course of these studies, two separate methods have been used to measure the potency of compounds. In Method A, the substrate mix was added to the compound plates first, then the reaction was started by adding the enzyme mix. In Method B, the enzyme mix was added to the compound plates and the plates were incubated at 20° C. for 1 hour. The reactions were then started by adding the substrate mix.
After initiating the reaction with either method describe above, the reactions were allowed to proceed for 90 minutes at 20° C. The reactions were then terminated by the addition of 20 μl 100 mM EDTA to each well. 40 μl/well of HTRF detection mix were added to the assay plates. The final concentrations of the detection reagents were: 100 mM HEPES (pH7.5), 0.1 mg/mL BSA, 15 nM streptavidin-labeled allophycocyanin (PerkinElmer), and 1 nM europium-labeled anti-phosphotyrosine antibody (PerkinElmer). Assay plates were left unsealed and were counted in a Wallac Multilabel Counter 1420 (PerkinElmer).
Compounds under analysis were dissolved in Me2SO to 1.0 mM and serially diluted 1 to 3 with Me2SO through twelve dilutions. 1 μl of each concentration was transferred to the corresponding well of an assay plate. This creates a final compound concentration range from 0.00027 to 47.6 μM.
The data for dose responses were plotted as % Inhibition calculated with the data reduction formula 100*(1−(U1−C2)/(C1−C2)) versus concentration of compound where U is the unknown value, C1 is the average control value obtained for 4.76% DMSO, and C2 is the average control value obtained for 0.035 M EDTA. Data were fitted with a curve described by: y=((Vmax*x)/(K+x))+Y^2 where Vmax is the upper asymptote, Y2 is the Y intercept, and K is the IC50. The results for each compound were recorded as pIC50s, calculated as follows: pIC50=−Log 10(K)
Background: Time-resolved FRET reads energy transfer from a long-lived donor to a nearby acceptor.

For assay [1], the system named is BT474 and HN5 tumor cell lines. Briefly: Methylene blue growth inhibition assay (cellular Method A). The conditions noted are these: 3 days, read-out: Activity (Method): growth inhibition IC50 class. The class given is cell-based, Human. As to the method: Human breast (BT474) and head and neck (HN5) were cultured in low glucose DMEM (Life Technologies 12320-032) containing 10% fetal bovine serum (FBS). Human colon tumor cells (Colo205) were cultured in DMEM (Invitrogen, 10564) containing 10% FBS. The SV40 transformed human mammary epithelial cell line HB4a was transfected with either human H-ras cDNA (HB4a r4.2) or the human c-ErbB2 cDNA (HB4a c5.2). The HB4a clones were cultured in RPMI containing 10% FBS, insulin (5 g/mL), hydrocortisone (5 g/mL), supplemented with the selection agent hygromycin B (50 g/mL). All lines were grown in a humidified incubator at 37° C. in 95% air, 5% CO2. Cells were harvested using trypsin/EDTA, counted using a haemocytometer, and plated in 100 microliters of the appropriate media, at the following densities, in a 96-well tissue culture plate (Falcon 3075): BT474 10,000 cells/well, HN5 3,000 cells/well. The next day, compounds were diluted in DMEM containing […] gentamicin, at twice the final required concentration, from 10 mM stock solutions in DMSO. 100 microliters/well of these dilutions were added to the 100 microliters of media currently on the cell plates. Medium containing 0.6% DMSO was added to control wells. Compounds diluted in DMEM were added to all cell lines. The final concentration of DMSO in all wells was 0.3%. Cells were returned to the incubator (37° C., 10% CO2) for 3 days. Medium was then removed by aspiration. Cell biomass was estimated by staining cells with 90 microliters per well methylene blue (Sigma M9140, 0.5% in 1:1 ethanol:water), and incubation at rt for at least 30 minutes. Stain was removed, and the plates rinsed by immersion in deionized water and air-dried. To release stain from the cells 100 microliters of solubilization solution was added (1% N-lauroyl sarcosine, Sodium salt, Sigma L5125, in PBS), and plates were shaken gently for about 30 minutes. Optical density at 620 nm was measured on a microplate reader. Percent inhibition of cell growth was calculated relative to vehicle treated control wells. Concentration of compound that inhibits 50% of control cell growth (IC50) was interpolated using nonlinear regression (Levenberg-Marquardt) and the equation, y=Vmax*(1−(x/(K+x)))+Y2, where “K” was equal to the IC50. Method B: Celltiter Glo® Growth Inhibition Assays

The mark [2] stands for this setting: Method A: substrate mix added first, reaction started with enzyme mix.
Where [3] appears, read: Method B: enzyme mix pre-incubated with compound 1 hour at 20° C., started with substrate mix.

Like-named read-outs stand apart in the source and are kept apart here.

By IC50 is commonly meant the midpoint of a concentration-inhibition curve. Take `N#Cc1cccc(Nc2nccc(-c3c(-c4cccc(NC(=O)c5c(F)cccc5F)c4)nn4ccccc34)n2)c1` [Example 30, N-[3-(3-{2-[(3-cyanophenyl)amino]-4-pyrimidinyl}pyrazolo[1,5-a]pyridin-2-yl)phenyl]-2,6-difluorobenzamide]: the “Activity (Method): pIC50 class against ErbB2 or EGFR” value (“Activity (Method): pIC50 class” below) on ErbB2 or EGFR (setting [2]) is on record as “+++ (A) (at least one pIC50 measurement of greater than 7 against either ErbB2 or EGFR)”. Further, in assay [1] (Homo sapiens, BT-474, 72 h), the IC50 is under 100 nM.
“N-[3-(3-{2-[4-(4-Cyanophenyl)phenylamino]-4-pyrimidinyl}-7-trifluoropyrazolo[1,5-b]pyridin-2-yl)phenyl]-2,6-difluorobenzamide [Example 93]”: the “Activity (Method): pIC50 class” value on ErbB2 or EGFR (setting [2]) was “++ (A) (at least one pIC50 measurement greater than 6 against either ErbB2 or EGFR but no measurement greater than pIC50 of 7)”. In assay [1], the IC50 was 100 to 1000 nM.
Consider `COCCOc1ccc(Nc2nccc(-c3c(-c4cccc(NC(=O)c5c(F)cccc5F)c4)nn4ccccc34)n2)cc1Cl` [Example 125, N-[3-(3-{2-[(3-Chloro-4-{[2-(methyloxy)ethyl]oxy}-phenyl)amino]-4-pyrimidinyl}pyrazolo[1,5-a]pyridin-2-yl)phenyl]-2,6-difluorobenzamide], for which the “Activity (Method): pIC50 class” value on ErbB2 or EGFR (setting [2]) is listed as “+++ (A) (at least one pIC50 measurement of greater than 7 against either ErbB2 or EGFR)”. In addition, in assay [1] (Homo sapiens, BT-474, 72 h), the half-maximal inhibitory concentration (IC50) was under 100 nM.
Consider `O=C(Nc1cccc(-c2nn3ccccc3c2-c2ccnc(Nc3cccc(F)c3)n2)c1)c1ccno1` [Example 67, N-[3-(3-{2-[(3-fluorophenyl)amino]-4-pyrimidinyl}pyrazolo[1,5-a]pyridin-2-yl)phenyl]-5-isoxazolecarboxamide], for which the “Activity (Method): pIC50 class” value at ErbB2 or EGFR (setting [3]) is listed as “+++ (B) (at least one pIC50 measurement of greater than 7 against either ErbB2 or EGFR)”. Besides, the IC50 in assay [1] (Homo sapiens, BT-474, 72 h) lay in the range of 100 to 1000 nM.
For `COc1cccc(C(=S)Nc2cccc(-c3nn4ccccc4c3-c3ccnc(Nc4ccc5c(c4)OCCO5)n3)c2)c1` [Example 9, N-(3-{3-[2-(2,3-Dihydro-benzo[1,4-]dioxin-6-ylamino)-pyrimidin-4-yl]-pyrazolo[1,5-a]pyridin-2-yl}-phenyl)-3-methoxy-thiobenzamide], the “Activity (Method): pIC50 class” value on ErbB2 or EGFR (setting [2]) is “++ (A) (at least one pIC50 measurement greater than 6 against either ErbB2 or EGFR but no measurement greater than pIC50 of 7)”. The IC50 in assay [1] (Homo sapiens, BT-474, 72 h) fell in the range of 100 to 1000 nM.
As for `O=C(Nc1cccc(-c2nn3ccccc3c2-c2ccnc(Nc3cccc(F)c3)n2)c1)c1ccnc(Cl)c1` [Example 73, 2-Chloro-N-[3-(3-{2-[(3-fluorophenyl)amino]-4-pyrimidinyl}pyrazolo[1,5-a]pyridin-2-yl)phenyl]-4-pyridinecarboxamide], the “Activity (Method): pIC50 class” value at ErbB2 or EGFR (setting [3]) is on record as “++ (B) (at least one pIC50 measurement greater than 6 against either ErbB2 or EGFR but no measurement greater than pIC50 of 7)”. For the same compound, the 50% inhibitory concentration (IC50) in assay [1] (Homo sapiens, BT-474, 72 h) is over 1000 nM.
`O=C(Nc1cccc(-c2nn3ccccc3c2-c2ccnc(Nc3cccc(F)c3)n2)c1)c1sccc1Cl` [Example 79, 3-Chloro-N-[3-(3-{2-[(3-fluorophenyl)amino]-4-pyrimidinyl}pyrazolo[1,5-a]pyridin-2-yl)phenyl]-2-thiophenecarboxamide]: on ErbB2 or EGFR (setting [3]), the “Activity (Method): pIC50 class” value is given as “++ (B) (at least one pIC50 measurement greater than 6 against either ErbB2 or EGFR but no measurement greater than pIC50 of 7)”. Moreover, the IC50 in assay [1] (Homo sapiens, BT-474, 72 h) was in the range of 100 to 1000 nM.
For `Cc1ccsc1C(=O)Nc1cccc(-c2nn3ccccc3c2-c2ccnc(Nc3cccc(F)c3)n2)c1` [Example 77, N-[3-(3-{2-[(3-fluorophenyl)amino]-4-pyrimidinyl}pyrazolo[1,5-a]pyridin-2-yl)phenyl]-3-methyl-2-thiophenecarboxamide] the same measures were “+++ (B) (at least one pIC50 measurement of greater than 7 against either ErbB2 or EGFR)” and 100 to 1000 nM.
For the compound `CN1CCc2ccc(Nc3nccc(-c4c(-c5cccc(NC(=O)c6ccccc6)c5)nn5ccccc45)n3)cc2C1` [Example 63, N-[3-(3-{2-[(2-methyl-1,2,3,4-tetrahydro-7-isoquinolinyl)amino]-4-pyrimidinyl}pyrazolo[1,5-a]pyridin-2-yl)phenyl]benzamide], on ErbB2 or EGFR (setting [3]), the “Activity (Method): pIC50 class” value is on record as “+++ (B) (at least one pIC50 measurement of greater than 7 against either ErbB2 or EGFR)”. In addition, the IC50 in assay [1] (Homo sapiens, BT-474, 72 h) is under 100 nM.
Turning to `Cn1cccc1C(=O)Nc1cccc(-c2nn3ccccc3c2-c2ccnc(Nc3ccc4c(c3)OCCO4)n2)c1` [Example 3, 1-Methyl-1H-pyrrole-2-carboxylic acid (3-{3-[2-(2,3-dihydro-benzo[1,4]dioxin-6-ylamino)-pyrimidin-4-yl]-pyrazolo[1,5-a]pyridin-2-yl}-phenyl)-amide], on ErbB2 or EGFR (setting [2]), the “Activity (Method): pIC50 class” value is “+++ (A) (at least one pIC50 measurement of greater than 7 against either ErbB2 or EGFR)”. The IC50 in assay [1] (Homo sapiens, BT-474, 72 h) was in the range of 100 to 1000 nM.
Turning to `O=C(Nc1cccc(-c2nn3ccccc3c2-c2ccnc(Nc3cccc(F)c3)n2)c1)c1ccc(F)cc1F` [Example 19, 2,4-Difluoro-N-(3-{3-[2-(3-fluoro-phenylamino)-pyrimidin-4-yl]-pyrazolo[1,5-a]pyridin-2-yl}-phenyl)-benzamide], on ErbB2 or EGFR (setting [3]), the “Activity (Method): pIC50 class” value is recorded as “+++ (B) (at least one pIC50 measurement of greater than 7 against either ErbB2 or EGFR)”. Moreover, the IC50 in assay [1] (Homo sapiens, BT-474, 72 h) lay within 100 to 1000 nM.
For `CC(=O)Nc1cccc(Nc2nccc(-c3c(-c4cccc(NC(=O)c5c(F)cccc5F)c4)nn4ccccc34)n2)c1` [Example 36, N-{3-[3-(2-{[3-(Acetylamino)phenyl]amino}-4-pyrimidinyl)pyrazolo[1,5-a]pyridin-2-yl]phenyl}-2,6-difluorobenzamide], at ErbB2 or EGFR (setting [2]), the “Activity (Method): pIC50 class” value is listed as “+++ (A) (at least one pIC50 measurement of greater than 7 against either ErbB2 or EGFR)”. Besides, in assay [1] (Homo sapiens, BT-474, 72 h), the half-inhibitory concentration (IC50) is under 100 nM.
On to `O=C(Nc1cccc(-c2nn3ccccc3c2-c2ccnc(Nc3cccc(F)c3)n2)c1)c1ccccc1` [Example 146], for which, at ErbB2 or EGFR (setting [3]), the “Activity (Method): pIC50 class” value is “+++ (B) (at least one pIC50 measurement of greater than 7 against either ErbB2 or EGFR)”. The IC50 in assay [1] (Homo sapiens, BT-474, 72 h) is 100 to 1000 nM.
